Legend:
Factor VII = conditions: LNP siRNA systems containing the lipid; cited from earlier work
[1] = system: A375 melanoma cell line (BRAF V600E); conditions: cited from earlier work
DNA = assay: indel formation by double nicking with sgRNA pairs; type: cell-based; conditions: substitution of Cas9n in a given sgRNA pair
Source text: Aspects of the invention relate to the expression of the gene product being decreased or a template polynucleotide being further introduced into the DNA molecule encoding the gene product or an intervening sequence being excised precisely by allowing the two 5′ overhangs to reanneal and ligate or the activity or function of the gene product being altered or the expression of the gene product being increased. In an embodiment of the invention, the gene product is a protein. Only sgRNA pairs creating 5′ overhangs with less than 8 bp overlap between the guide sequences (offset greater than −8 bp) were able to mediate detectable indel formation. […] Nonetheless, a pair of sgRNAs that will generate a 5′ overhang with Cas9n should in principle generate the corresponding 3′ overhang instead, and double nicking. […] Accordingly, in some embodiments, a recombination template is also provided. A recombination template may be a component of another vector as described herein, contained in a separate vector, or provided as a separate polynucleotide. In some embodiments, a recombination template is designed to serve as a template in homologous recombination, such as within or near a target sequence nicked or cleaved by a CRISPR enzyme as a part of a CRISPR complex. […]

MS2 RNA aptamer = conditions: cited from earlier work
Neurog2 = Neurog2 upregulation in Neuro-2a cells, qRT-PCR; type: cell-based
Description: 120,000 cells were plated in each well of a 24-well plate 18-20 h before transfection. Cells were transfected with Lipofectamine transfection reagent (Life Technologies) according to the manufacturer's instructions.
RNA was extracted using the RNeasy kit (Qiagen) according to manufacturer's instructions and […] of RNA per sample was reverse-transcribed using qScript (Quanta Biosystems). Relative mRNA levels were measured by reverse transcription and quantitative PCR (qRT-PCR) using TaqMan probes specific for the targeted gene as well as GAPDH as an endogenous control (Life Technologies). ddCt analysis was used to obtain fold-changes relative to negative controls transfected with GFP only.
A minimal hairpin aptamer capable of binding to the bacteriophage coat protein MS2, which is known to be capable of binding MS2 through strong sequence- and structure-specific interactions in mammalian cells^18,19, to incorporate into tetraloop and stem-loop 2 (FIG. 27b) was chosen. Tests were performed to evaluate whether MS2-mediated recruitment of VP64 to the tetraloop and stem-loop 2 could mediate transcriptional up-regulation more efficiently than a dCas9-VP64 fusion alone. Aptamer-mediated recruitment of MS2-VP64 to either tetraloop (sgRNA 1.1) or stem-loop 2 (sgRNA 1.2) mediated 3- and 5-fold higher levels of Neurog2 up-regulation than a dCas9-VP64 fusion (sgRNA 1.0), respectively.

human ASCL1 = assay: ASCL1 activation in HEK293FT cells, qPCR; type: cell-based
Description: (§1) Human HEK293FT cells were maintained in high-glucose DMEM with GlutaMax and sodium pyruvate (Life Technologies) supplemented with 10% heat-inactivated characterized HyClone fetal bovine serum (Thermo Scientific) and 1% penicillin/streptomycin (Life Technologies). Cells were passaged daily at a ratio 1 to 2 or 1 to 2.5. For MS2/dCas9 activator experiments, 20,000 HEK293FT cells were plated in 100 μL of culture medium in poly-d-lysine coated 96-well plates (BD biosciences). […]
(§2) Total plasmid mass per well was 0.3 micrograms. […] Gene expression levels were quantified by using Taqman qPCR probes (Life technologies) and Fast Advanced Master Mix (Life Technologies). ASCL1 and MYOD1 expression levels were calculated relative to GAPDH expression level. Fold gene expression levels were determined by comparison to samples transfected with GFP plasmid only. […]
(§3) A total plasmid mass of 0.3 ug/well was transfected using 1.5 uL/well Lipofectamine 2000 (Life Technologies) according to the manufacturer's instructions. […] Relative RNA expression levels were quantified by reverse transcription and quantitative PCR (qPCR) using Taqman qPCR probes (Life technologies) and Fast Advanced Master Mix (Life Technologies). qPCR was carried out in 5 uL multiplexed reactions and 384-well format using the LightCycler 480 Instrument II. […]

human MYOD1 = assay: MYOD1 activation in HEK293FT cells, qPCR; type: cell-based
Description: as §1, §2, §3

CXCR4, CACNAC1A = assay: repression by non-coding Alu loops in the sgRNA with dCas9, HEK293FT, qPCR; type: cell-based, human; conditions: in complex with dCas9
Description: The non-coding Alu RNA has previously been described as a transacting repressor interfering with RNA polymerase II in mammalian cells. In addition, a minimal loop required for repression has been identified (sciencedirect.com/science/article/pii/S1097276508000026). Applicants designed guides with different sites of incorporation of the truncated Alu loop (and in combination with PP7 loops). Sequences for these sgRNA backbones are listed below: […]
A total plasmid mass of 0.3 μg/well was transfected using 0.6 μL/well Lipofectamine 2000 (Life Technologies) according to the manufacturer's instructions. […] Relative RNA expression levels were quantified by reverse transcription and quantitative PCR (qPCR) using TaqMan qPCR probes (Life Technologies) and Fast Advanced Master Mix (Life Technologies). qPCR was carried out in 5 μL multiplexed reactions and 384-well format using the LightCycler 480 Instrument II. Data was analyzed by the ΔΔCt method: target Ct values (FAM dye) were normalized to GAPDH Ct values (VIC dye), and fold changes in target gene expression were determined by comparing to GFP-transfected experimental controls.

1,2-dilinoleyloxy-keto-N,N-dimethyl-3-aminopropane [DLinKDMA]
gene silencing potency, rank order (Factor VII): DLinKC2-DMA>DLinKDMA>DLinDMA>>DLinDAP

CCCCC/C=C\C/C=C\CCCCCCCC(=O)OCC(CN(C)C)OC(=O)CCCCCCC/C=C\C/C=C\CCCCC (centres unmarked) [DLinDAP, 1,2-dilineoyl-3-dimethylammonium-propane]
gene silencing potency, rank order (Factor VII): DLinKC2-DMA>DLinKDMA>DLinDMA>>DLinDAP

CCCCC/C=C\C/C=C\CCCCCCCCOCC(CN(C)C)OCCCCCCCC/C=C\C/C=C\CCCCC (centres unmarked) [DLinDMA, 1,2-dilinoleyloxy-3-N,N-dimethylaminopropane]
gene silencing potency, rank order (Factor VII): DLinKC2-DMA>DLinKDMA>DLinDMA>>DLinDAP

CCCCC/C=C\C/C=C\CCCCCCCCC1(CCCCCCCC/C=C\C/C=C\CCCCC)OCC(CCN(C)C)O1 (centres unmarked) [DLinKC2-DMA, 1,2-dilinoleyl-4-(2-dimethylaminoethyl)-[1,3]-dioxolane]
gene silencing potency, rank order (Factor VII): DLinKC2-DMA>DLinKDMA>DLinDMA>>DLinDAP

CCCS(=O)(=O)Nc1ccc(F)c(C(=O)c2c[nH]c3ncc(Cl)cc23)c1F [PLX4720]
sensitivity of A375 cells, in words [1]: naturally sensitive

H840A: Cas9 with the H840A mutation in the HNH domain
indel formation, in words (DNA): no indel formation is observed

N55K mutant of the MS2 bacteriophage coat protein: MS2 variant, N55K mutant
binding affinity, in words (MS2 RNA aptamer): higher binding affinity than wild type MS2

B1: sgRNA 2.0: sgRNA scaffold in which the tetraloop and stem-loop 2 sequences have been replaced by an MS2 binding loop (nucleic acid)
guide: NNNNNNNNNNNNNNNNNNNNGUUUUAGAGCUAGGCCAACATGAGGATCACCCATGTCTGCAGGGCCUAGCAAGUUAAAAUAAGGCUA
modifications: /note=“Description of Combined DNA/RNA Molecule Synthetic oligonucleotide”; modified_base (1)..(20) a, c, t, g, unknown or other
levels of Neurog2 up-regulation relative to a dCas9-VP64 fusion (sgRNA 1.0) (Neurog2; aptamer-mediated recruitment of MS2-VP64, with dCas9): 12 fold
target gene upregulation (Neurog2), in words (Neurog2; with dCas9-vp64 and MS2-vp64, compared with regular guide and dCas9-vp64): much higher target gene upregulation compared to the previous design
ASCL1 activation, comparison in words (human ASCL1): more potent than either of the 3′ MS2 sgRNA architectures
levels of transcription activation relative to sgRNA+2×MS2 (human ASCL1; ASCL1): 14 fold
MYOD1 activation, comparison in words (human MYOD1): more potent than either of the 3′ MS2 sgRNA architectures
levels of transcription activation relative to sgRNA+2×MS2 (human MYOD1; MYOD1): 8.5 fold

B2: minimal non-coding Alu-loops at the tetraloop and stem-loop 2: sgRNA backbone with truncated Alu loop at tetraloop and stem-loop 2 (nucleic acid)
guide: GTTTTAGAGCTAGAGGCAGGAGAATGGCGTGAACCCGGGAGGTGGCCGAGATCGCTCCAGCCTGGGTGACAGAGCGAGACTCTGTCTCTAGCAAGTTAAAATAAGGCTAGTCCGTTATCAACTTGAGGCAGGAGAATGGCGTGAACCCGGGAGGTGGCCGAGATCGCTCCAGCCTGGGTGACAGAGCGAGACTCTGTCTCAAGTGGCACCGAGTCGGTGCTTTTTTT
repression of target gene expression, in words (CXCR4, CACNAC1A): able to repress target gene expression in complex with dCas9
